Reference: patent publication US20240158367A1, “TRICYCLIC COMPOUND AS HIF2-ALPHA INHIBITOR, PREPARATION METHOD THEREFOR AND APPLICATION THEREOF” (SHANGHAI JEMINCARE PHARMACEUTICALS CO., LTD, priority 2021, published 2024)

Assays:
[1] = system: HIF response element(HRE)-dependent luciferase in 786-O-HRE-Luc cells; assay: Luciferase assay in 786-O-HRE-Luc cells; format: cell-based; conditions: approximately 24 hours incubation
Method: 786-O-HRE-Luc cells were obtained by infecting 786-O (ATCC®CRL-1932™) cells purchased from ATCC with commercial lentivirus. Appropriate 786-O-HRE-Luc single cell clones were screened, expanded, and used for the subsequent luciferase assay. For the luciferase assay, 100×DMSO stock solution dissolved with the drug was prepared in assay medium (RPMI-1640 containing 2% FBS; FBS: 10099141C, Gibco; RPMI-1640: 12440053, Gibco) to formulate a series of dilutions of 10×compounds. To a clear flat-bottom 96-well plate (3599, Corning) was added 20 μL of the 10×compound dilution. Then approximately 100,000 786-O-HRE-Luc cells in 180 μL of culture medium were seeded into the 96-well plate. The final concentration of DMSO (D2650, Sigma) in each well was 0.1%. After approximately 24 hours of incubation in the incubator, luciferase activity was determined using the Dual-Luciferase Reporter Assay System (E1960, Promega) reagent following the manufacturer's recommended method. EC50 values were calculated by GraphPad Prism software using the dose-response-inhibition (four parameter) equation.

[2] = system: VEGF expression in 786-O cells; assay: VEGF ELISA assay in 786-O cells; format: cell-based; conditions: about 48 hours incubation
Method: 100×DMSO stock solution dissolved with the drug was prepared in assay medium (RPMI-1640 containing 2% FBS; FBS: 10099141C, Gibco; RPMI-1640: 12440053, Gibco) to formulate a series of dilutions of 10×compounds. To a clear flat-bottom 96-well plate (3599, Corning) was added 20 μL of the 10×compound dilution. Then approximately 40,000 786-O cells (ATCC®CRL-1932™) in 180 μL of culture medium were seeded into the 96-well plate. The final concentration of DMSO (D2650, Sigma) in each well was 0.1%. After incubating in the incubator for about 48 hours, 100 μL of the upper medium from each well was pipetted and placed in a new 96-well plate (3799, Corning). An ELISA kit (DY293B, R&D Systems) was used. The concentration of VEGF was determined according to the OD value of each well at […] detected by a microplate reader. EC50 values were calculated by GraphPad Prism software using the dose-response-inhibition (four parameter) equation.

[3] = Pharmacokinetic test in SD rats by gavage
Method: animals: SD rats, male, 200 to 220 g, purchased from Shanghai Jiesijie Laboratory Animal Co., Ltd.
The SD rats in each test compound group (3 rats in each group) were fasted overnight and then intragastrically administered the compounds (PO, administration dosage of 10 mg/kg or 5 mg/kg, administration volume of 10 mL/kg), and given food 4 hours after administration.
Approximately 0.2 mL of blood was collected from the jugular vein before administration and 0.083 hours, 0.25 hours, 0.5 hours, 1 hour, 2 hours, 4 hours, 6 hours, 8 hours, and 24 hours after administration, anticoagulated with sodium heparin. Blood samples were placed on ice after collection, and plasma was separated by centrifugation (centrifugation conditions: 1500 g, 10 minutes). The collected plasma was stored at −40° C. to −20° C. before analysis.
LC-MS/MS was used to determine the content of the test compound in rat plasma after intragastric administration.

[4] = SD rats, male, PO 10 mg/kg, plasma
[5] = male, SD, rat, in vivo, po, 5 mg/kg

Row | Structure (SMILES) | EC50 [1] [nM] | EC50 [2] [nM] | further results
1 | N#Cc1cncc(Oc2ccc3c4c2[C@H](F)[C@@H](F)[C@@]4(O)C(F)(F)S3(=O)=O)c1 [Compound 3-P2] | 3990 | 2760 | 
2 | N#Cc1cncc(Oc2ccc3c4c2[C@@H](F)[C@@H](F)[C@]4(O)C(F)(F)S3(=O)=O)c1 [Compound 3-P3] | 12.2 | 30.9 | Plasma concentration and area under the curve compared with comparative example PT2385 ([3]; SD rats, PO, 10 mg/kg vs PT2385 5 mg/kg): significantly improved plasma concentration and area under the curve; Area under the curve AUC0-∞ [3, 4]: 24806 ng·h/mL; Plasma concentration Cmax [3, 4]: 4646 ng/mL
3 | CS(=O)(=O)c1ccc(Oc2cc(F)cc(C#N)c2)c2c1[C@H](O)C(F)(F)C2 [PT2385, reference compound] |  |  | AUC(0-inf) [3, 5]: 843 ng·h/mL; Cmax [3, 5]: 193 ng/mL
4 | N#Cc1cc(F)cc(Oc2ccc3c4c2C(F)CC4(O)C(F)(F)S3(=N)=O)c1 (centres unmarked) [Compound 2] | 46 |  | 
5 | N#Cc1cncc(Oc2ccc3c4c2[C@@H](F)[C@H](F)[C@]4(O)C(F)(F)S3(=O)=O)c1 [Compound 3-P1] | 67.7 | 180 | 
6 | N=S1(=O)c2ccc(Oc3cc(F)cc(Cl)c3)c3c2C(O)(CC3F)C1(F)F (centres unmarked) [Compound 1] |  | 115 | 

The next lines start with results.

Row | EC50 [1] [nM] | EC50 [2] [nM] | Structure (SMILES) | further results
7 | 6.1 | 15.2 | N#Cc1cc(F)cc(Oc2ccc3c4c2[C@@H](F)[C@@H](F)[C@]4(O)C(F)(F)S3(=O)=O)c1 [Compound 4-P3] | 
8 | 19.2 | 40.5 | N#Cc1cc(F)cc(Oc2ccc3c4c2[C@@H](F)[C@H](F)[C@]4(O)C(F)(F)S3(=O)=O)c1 [Compound 4-P1] | 
9 | 6410 | 4920 | N#Cc1cncc(Oc2ccc3c4c2[C@H](F)[C@H](F)[C@@]4(O)C(F)(F)S3(=O)=O)c1 [Compound 3-P4] | 
10 | 511 | 737 | N#Cc1cc(F)cc(Oc2ccc3c4c2[C@H](F)[C@H](F)[C@@]4(O)C(F)(F)S3(=O)=O)c1 [Compound 4-P4] | 
11 | 48.5 | 54.4 | N#Cc1cc(F)cc(Oc2ccc3c4c2[C@H](F)[C@@H](F)[C@@]4(O)C(F)(F)S3(=O)=O)c1 [Compound 4-P2] | 
